Entries after “also recorded” stand apart in the source; their conditions may differ.
Key:
[1] = test system: Acanthoscelides obtectus; assay: 5 EC formulations sprayed on glass plates (Table 21); assay type: in vivo, bean weevil (Acanthoscelides obtectus), imagos; conditions: 5 EC formulation, 24 hours
Procedure: The 5 EC formulations prepared according to Example 42 are diluted 50x, 100x, 200x, 400x, 800x and 1600x with water and 0.5 ml doses are sprayed onto glass plates. After drying 10 L. decemlineata imagos are placed on each glass plate and the insects are covered with Petri-dishes. The tests are carried out by using 6 doses and 3 parallels for each dose. The killed insects are counted after 48 hours.
Glass plates are sprayed with 5 EC formulations prepared according to Example 42 in an analogous manner to Example 52. After drying 10 bean weevil (Acanthoscelides obtectus) imagos are placed on each plate and the insects are covered with Petri-dishes. The killed insects are counted after 24 hours. The test is carried out with 6 doses by using 3 parallels for each dose.

[2] = test system: Myzus persicae; assay: 5 EC formulations on aphid-infected bean plants (Table 22); assay type: in vivo, green peach aphids (Myzus persicae)
Procedure: 15 bean plants infected with green peach aphids (Myzus persicae) at 6 days' age are cultivated in each pot. At 12 days' age the strongly and uniformly infected plants are selected and sprayed to run-off with emulsions freshly prepared from the formulation according to Example 42. Treatments are carried out with three doses (active ingredient 2.5, 5 and 10 ppm) and four parallels are used (one pot per parallel). The second, fourth and eighth day after treatment the aphids are swept down from the plants to a white paper with a fine brush and the live insects are counted.

[3] = test system: T. confusum; assay: Filter paper contact test with piperonyl butoxide (Table 7); assay type: in vivo, confused flour-beetle (T. confusum), imagos; conditions: for mortality at 25 µg/disc / mortality at 50 µg/disc / mortality at 100 µg/disc / mortality at 200 µg/disc / mortality at 400 µg/disc: Tribolium confusum, 24 h, PBO, where added, 0.5 mg/disc; for mortality at 25 µg/disc: 0.025 mg/disc; for mortality at 50 µg/disc: 0.05 mg/disc; for mortality at 100 µg/disc: 0.1 mg/disc; for mortality at 200 µg/disc: 0.2 mg/disc; for mortality at 400 µg/disc: 0.4 mg/disc
Procedure: The stereoisomers are dissolved in a 1:2 mixture of mineral oil and acetone and filter paper discs (Whatman No. 1., diameter 9 cm) are impregnated with the corresponding dosage of the solution of the active ingredient. The acetone is allowed to evaporate and the insects are examined on filter paper discs placed into Petri-dishes. Three parallels are used for each dose and 15 animals are placed in each Petri-dish. Mortality rate is determined after 24 hours. The corrected mortality % data are calculated by means of the Abbot formula.
T. confusum (confused flour-beetle) imagos are treated according to Example 20 and percental mortality is determined after 24 hours. The dose of piperonyl butoxide (referred to furtheron as "[…]") amounts to 0.5 mg/disc The results are disclosed in Table 7.

[4] = test system: T. confusum; assay: Topical LD50 (Table 3); assay type: in vivo, 1-2 weeks' old imagos
Procedure: In Table 3 the LD50 values of the Ig and Ii isomers and those of the Ib isomer-pair are disclosed. The data are topically measured.
The active ingredients are dissolved in 2-ethoxyethanol (cellosolve) and 0.3 μl droplets of the solutions are applied onto the dorsal cuticulum of 3-5 days' old female house flies. 10 animals are used and 2 parallels are carried out for each dose. The tests are carried out for 5 dose levels between activity limits of 0% and 100%. After treatment the flies are placed into glass vials. Mortality is determined after 24 hours. Data are transformed to log10 dosage and probit mortality. LD50 and confidence interval values are calculated by linear regression analysis of the log-probit data. The expected values required for the calculation of synergism are obtained by means of harmonic average. The synergistic factor is the quotient of the expected and measured values.
The active ingredients are dissolved in 2-ethoxyethanol and 0.3 μl droplets of the solutions are applied onto the abdominal side of 1-2 weeks' old imagos. Treatment is carried out with 2 parallels and 20 animals for each dose by using 5 dose levels in the range between activity limits of 0% and 100%. Evaluation and determination of LD50 values and synergistic factors are carried out as described in Example 21.

[5] = test system: A. matricariae; assay: Direct contact test of pupae (Table 5); assay type: in vivo
Procedure: Mature pupae of A. matricariae on paprika leaves in Petri dishes are exposed to a direct spray of the active ingredients.
Two or three days before emergence paprika leaves with parasitized pupae are used. The leaves are laid on filter paper in a plastic Petri dish The filter paper is moistened.
Application of treatment: See Example 23.
The pieces of leaf are transferred after treatment to clean Petri dish bottoms The trays are stored in a clinic chamber at 20° C. temperature, 70% relative humidity and a light-dark cycle of […]. Surviving pupae hatch after 2-3 days. The numbers of hatched and dead pupae are counted.

[6] = test system: Leptinotarsa decemlineata; assay: Topical test on potato beetle (Table 6); assay type: in vivo, imagos; conditions: 24 h
Procedure: The active ingredients are dissolved in 2-ethoxyethanol and […] of the solutions are applied onto the abdominal sterna of potato beetle (Leptinotarsa decemlineata) imagos. The treatments are carried out by using two parallels and 10 insects for each dose. […]

[7] = test system: Acanthoscelides obtectus; assay: 5 EC formulation, insecticidal effect on bean weevil (Table 10); assay type: in vivo, bean weevil (Acanthoscelides obtectus), imagos; conditions: 24 hours
Procedure: From a 5 EC formulation according to Example 17 50-, 100-, 200-, 400-, 800- and 1600-fold diluted emulsions are prepared by diluting with water. 0.5 ml of the emulsions are sprayed onto glass plates whereupon after drying 10 Colorado beetles (L. decemlineata) imagos are placed on each glass plate and the insects are covered. The tests are carried out with 6 doses by carrying out 3 parallels for each dose. The killed insects are counted after 48 hours and the percental mortality rate is calculated.
The insecticidal effect is tested on been weevil (Acanthoscelides obtectus) imagos. The killed insects are counted after 24 hours and the percental mortality rate is calculated.

[8] = Allergy and skin diseases; conditions: in vivo
[9] = test system: useful entomophages and parasites; assay: Damage to useful entomophages and parasites; conditions: in vivo
[10] = Repellant effect; conditions: in vivo
[11] = 2.5 ppm, 2 days after treatment (control 1850)
[12] = 2.5 ppm, 4 days after treatment (control 2780)
[13] = 2.5 ppm, 8 days after treatment (control 4120)
[14] = 5.0 ppm, 2 days after treatment (control 1850)
[15] = 5.0 ppm, 4 days after treatment (control 2780)
[16] = 5.0 ppm, 8 days after treatment (control 4120)
[17] = 10.0 ppm, 2 days after treatment (control 1850)
[18] = 10.0 ppm, 4 days after treatment (control 2780)
[19] = 10.0 ppm, 8 days after treatment (control 4120)

CC1(C)C(C=C(Cl)Cl)C1C(=O)OC(C#N)c1cccc(Oc2ccccc2)c1 (stereo not shown) [Ia:Ib = 4:6]
Mortality % ([1]; dilution 50x, 1440 min): 70% | Mortality % ([1]; dilution 100x, 1440 min): 53% | Mortality % ([1]; dilution 200x, 1440 min): 37% | Mortality % ([1]; dilution 400x, 1440 min): 30% | Mortality % ([1]; dilution 800x, 1440 min): 17% | Mortality % ([1]; dilution 1600x, 1440 min): 10% | Average number of aphids per pot [2, 11]: 38 | Average number of aphids per pot [2, 12]: 71 | Average number of aphids per pot [2, 13]: 251 | Average number of aphids per pot [2, 14]: 21 | Average number of aphids per pot [2, 15]: 32 | Average number of aphids per pot [2, 16]: 82 | Average number of aphids per pot [2, 17]: 10 | Average number of aphids per pot [2, 18]: 11 | Average number of aphids per pot [2, 19]: 21

CC1(C)[C@H](C(=O)O[C@H](C#N)c2cccc(Oc3ccccc3)c2)[C@@H]1C=C(Cl)Cl (relative stereo) [Ia]
mortality at 25 µg/disc [3]: 0% | mortality at 50 µg/disc [3]: 0% | mortality at 100 µg/disc [3]: 12% | mortality at 200 µg/disc [3]: 53% | mortality at 400 µg/disc [3]: 96% | Mortality % ([1]; dilution 50x): 70% | Mortality % ([1]; dilution 100x): 50% | Mortality % ([1]; dilution 200x): 33% | Mortality % ([1]; dilution 400x): 27% | Mortality % ([1]; dilution 800x): 13% | Mortality % ([1]; dilution 1600x): 0% | Average number of aphids per pot [2, 11]: 44 | Average number of aphids per pot [2, 12]: 83 | Average number of aphids per pot [2, 13]: 245 | Average number of aphids per pot [2, 14]: 22 | Average number of aphids per pot [2, 15]: 29 | Average number of aphids per pot [2, 16]: 90 | Average number of aphids per pot [2, 17]: 8 | Average number of aphids per pot [2, 18]: 17 | Average number of aphids per pot [2, 19]: 30

CC1(C)[C@H](C=C(Cl)Cl)[C@H]1C(=O)O[C@H](C#N)c1cccc(Oc2ccccc2)c1 (relative stereo) [Ib]
LD50 expected ([4]; harmonic average of the single isomers): 139.3 ng/insect | synerg. factor ([4]; quotient of expected and measured LD50): 2.68 | LD50 measured ([4]; topical, abdominal side): 51.9 ng/insect | Mortality % ([5]; 1 ppm): 0% | Mortality % ([5]; 5 ppm): 0% | Mortality % ([5]; 10 ppm): 0% | Mortality % ([5]; 30 ppm): 61.0% | mortality at 0.05 µg/insect ([6]; 0.05 μg/insect): 0% | mortality at 0.1 µg/insect ([6]; 0.10 μg/insect): 25% | mortality at 0.2 µg/insect ([6]; 0.20 μg/insect): 75% | mortality at 0.4 µg/insect ([6]; 0.40 μg/insect): 85% | synergizability with piperonyl butoxide ([3]; Ib versus Ia): can be synergized at a higher level than isomer pair Ia | mortality at 25 µg/disc [3]: 0% | mortality at 50 µg/disc [3]: 10% | mortality at 100 µg/disc [3]: 51% | mortality at 200 µg/disc [3]: 85% | mortality at 400 µg/disc [3]: 100% | Mortality % ([7]; dilution 50x): 67% | Mortality % ([7]; dilution 100x): 53% | Mortality % ([7]; dilution 200x): 37% | Mortality % ([7]; dilution 400x): 20% | Mortality % ([7]; dilution 800x): 10% | Mortality % ([7]; dilution 1600x): 3% | allergy and skin diseases [8]: causes no allergy and skin diseases | damage / toxicity to useful entomophages and parasites [9]: does not damage useful entomophages and parasites; also recorded: less toxic on parasites than the isomer-pair Ia | repellant effect [10]: outstandingly good
